The source of these data is publication PMC10110893, “[…]-derived synthetic cannabinoids inhibit T-type calcium channels with divergent effects on seizures in rodent models of epilepsy” (Frontiers in Physiology, 2023).

Assay [1] deals with T1, human Cav3.3 (Homo sapiens, UniProt Q9P0X4).
T1 construct: expressed in transfected cells; host or cells: HEK293 FlpIn T-Rex cells (Invitrogen)
Briefly: FLIPR calcium flux assay, Cav3.3. Format: cell-based. The protocol: HEK293 FlpIn T-Rex cells (Invitrogen, CA, United States) stably expressing human Cav3.1, Cav3.2, or Cav3.3 were maintained in Dulbecco’s Modified Eagle Medium (DMEM) supplemented with 10% foetal bovine serum (FBS), 1% penicillin-streptomycin (P/S) at 37°C, and 5% CO2 as previously described ([Bladen et al., 2021]; [Udoh et al., 2022]). Hygromycin (80 μg/mL) and blasticidin (15 μg/mL) were used as selection antibiotics and cells were passaged at 80% confluency. For experiments, cells were resuspended in Leibovitz’s L-15 media (containing 1% FBS, 1% P/S, 15 mM glucose, 2 μg/mL tetracycline), plated in black, clear-bottomed poly-D-lysine-coated 96-well plates (90 μL) (Corning, NY, United States), and incubated overnight in ambient air at 37°C. All compounds tested in cellular assays were prepared as stock solutions in DMSO and final DMSO concentration was 0.1%.
Intracellular calcium flux was measured using a fluorometric imaging plate-reader (FLIPR) Calcium 5 Assay Kit and FlexStation 3 Microplate Reader (Molecular Devices, San Jose, United States). Calcium 5 dye (90 μL) prepared in low potassium HBSS (Thermo Fisher Scientific) containing (in mM) 145 NaCl, 22 HEPES, 0.338 Na2HPO4, 4.17 NaHCO3, 0.441 KH2PO4, 0.407 MgSO4, 0.493 MgCl2, 1.26 CaCl2, 5.56 glucose, and […] with pH 7.4 was applied to each well and incubated for 1 h at 37°C, ambient air prior to testing.
Fluorescence readings were taken at 2 s intervals (λ excitation = 485 nm, λ emission = 525 nm). Following 2 min baseline reading, 20 μL of SB2193, SB2193F, or NNC 55-0396 (10 nM—10 μM) was added to cells and read for 5 min, then CaCl2 (10 mM) was added and read for 3 min. Baseline fluorescence averaged over the 20 s interval preceding CaCl2 addition was subtracted and normalized to the vehicle response. Changes in fluorescence were measured in relative fluorescence units (RFU). All compounds were assayed in ≥ five independent experiments (n = 5–8) performed in duplicate. Order of compound addition and location on the plate were varied between replicates. Data was fit to a four-parameter non-linear dose-response curve using GraphPad Prism 8.2.0 software (La Jolla, United States) to determine IC50 values.
A general note: Calcium assays in cells follow changes in intracellular calcium, usually with a dye or a luminescent sensor.

In assay [2] the target is T2, human Cav3.1 (Homo sapiens, UniProt O43497).
T2 construct: expressed in transfected cells; host or cells: HEK293 FlpIn T-Rex cells (Invitrogen)
T2 sequence (O43497 whole entry): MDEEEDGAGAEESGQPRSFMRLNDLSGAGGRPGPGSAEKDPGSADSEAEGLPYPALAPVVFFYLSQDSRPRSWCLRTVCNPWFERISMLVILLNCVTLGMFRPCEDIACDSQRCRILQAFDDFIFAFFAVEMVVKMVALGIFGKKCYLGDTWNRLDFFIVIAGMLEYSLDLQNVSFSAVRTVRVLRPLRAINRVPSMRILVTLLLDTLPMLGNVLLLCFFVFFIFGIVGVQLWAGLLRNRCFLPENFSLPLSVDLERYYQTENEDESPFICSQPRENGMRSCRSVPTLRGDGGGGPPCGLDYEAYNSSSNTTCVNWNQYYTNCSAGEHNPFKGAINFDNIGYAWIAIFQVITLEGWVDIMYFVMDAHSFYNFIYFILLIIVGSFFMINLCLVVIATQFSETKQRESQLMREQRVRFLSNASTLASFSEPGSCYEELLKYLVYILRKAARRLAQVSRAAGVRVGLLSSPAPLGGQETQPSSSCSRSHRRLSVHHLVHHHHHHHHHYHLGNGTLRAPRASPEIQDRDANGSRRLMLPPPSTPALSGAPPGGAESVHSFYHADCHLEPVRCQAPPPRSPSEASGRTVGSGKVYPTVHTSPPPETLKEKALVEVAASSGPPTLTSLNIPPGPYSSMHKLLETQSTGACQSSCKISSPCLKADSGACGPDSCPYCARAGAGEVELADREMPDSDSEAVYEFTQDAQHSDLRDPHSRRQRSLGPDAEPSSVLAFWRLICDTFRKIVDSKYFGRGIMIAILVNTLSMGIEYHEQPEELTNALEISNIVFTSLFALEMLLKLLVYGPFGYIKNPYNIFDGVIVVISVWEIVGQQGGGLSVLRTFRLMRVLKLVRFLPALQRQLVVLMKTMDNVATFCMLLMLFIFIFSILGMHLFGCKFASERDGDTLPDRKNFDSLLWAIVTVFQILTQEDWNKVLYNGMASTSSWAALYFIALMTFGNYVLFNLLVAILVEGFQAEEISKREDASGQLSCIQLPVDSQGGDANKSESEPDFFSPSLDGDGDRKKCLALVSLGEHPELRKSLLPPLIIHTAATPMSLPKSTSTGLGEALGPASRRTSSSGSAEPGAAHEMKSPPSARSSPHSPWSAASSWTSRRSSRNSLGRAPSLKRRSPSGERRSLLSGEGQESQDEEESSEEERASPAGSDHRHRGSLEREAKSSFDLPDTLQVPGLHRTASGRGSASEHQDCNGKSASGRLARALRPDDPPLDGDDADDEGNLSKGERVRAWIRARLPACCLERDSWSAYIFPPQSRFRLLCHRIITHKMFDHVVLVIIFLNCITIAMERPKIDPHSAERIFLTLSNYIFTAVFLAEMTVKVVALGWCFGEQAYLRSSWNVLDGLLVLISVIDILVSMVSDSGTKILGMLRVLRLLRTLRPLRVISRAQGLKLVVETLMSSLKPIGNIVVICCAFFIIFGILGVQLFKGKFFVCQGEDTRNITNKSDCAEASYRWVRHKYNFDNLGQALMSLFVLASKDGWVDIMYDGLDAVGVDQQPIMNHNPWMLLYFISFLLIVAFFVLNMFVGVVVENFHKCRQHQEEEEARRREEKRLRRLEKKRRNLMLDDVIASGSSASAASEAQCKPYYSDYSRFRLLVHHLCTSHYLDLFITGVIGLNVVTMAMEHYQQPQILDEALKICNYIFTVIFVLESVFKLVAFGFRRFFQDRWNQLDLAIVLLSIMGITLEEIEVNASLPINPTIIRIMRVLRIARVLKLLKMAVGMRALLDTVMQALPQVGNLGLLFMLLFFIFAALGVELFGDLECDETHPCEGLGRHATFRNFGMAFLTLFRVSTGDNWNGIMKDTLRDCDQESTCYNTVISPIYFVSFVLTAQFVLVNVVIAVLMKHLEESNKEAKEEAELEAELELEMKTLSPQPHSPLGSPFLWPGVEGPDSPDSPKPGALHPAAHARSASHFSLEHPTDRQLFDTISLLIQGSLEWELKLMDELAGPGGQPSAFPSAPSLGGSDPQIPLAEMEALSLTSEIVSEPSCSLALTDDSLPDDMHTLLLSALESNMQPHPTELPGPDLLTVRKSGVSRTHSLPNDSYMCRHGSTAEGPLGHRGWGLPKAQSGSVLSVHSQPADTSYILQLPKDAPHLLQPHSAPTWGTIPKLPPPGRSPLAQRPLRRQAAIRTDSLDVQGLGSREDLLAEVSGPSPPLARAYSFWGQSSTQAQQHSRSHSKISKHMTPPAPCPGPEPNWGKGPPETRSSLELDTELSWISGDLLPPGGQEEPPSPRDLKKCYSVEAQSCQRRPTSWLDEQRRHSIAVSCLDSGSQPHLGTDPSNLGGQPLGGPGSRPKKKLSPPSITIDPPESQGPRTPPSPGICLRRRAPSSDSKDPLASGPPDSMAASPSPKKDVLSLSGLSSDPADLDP
Briefly: Whole-cell patch-clamp electrophysiology, Cav3.1. Format: cell-based. As to the method:
All whole-cell voltage-clamp recordings from HEK293 FlpIn T-Rex cells stably transfected with human Cav3.1 were performed at room temperature. At least 24 h prior to experiments, cells were detached from flasks using trypsin/EDTA and plated into 10 cm sterile tissue culture dishes containing 10 mL of supplemented DMEM and 10–15 glass coverslips (12 mm diameter, ProScitech, QLD, Australia). Culture dishes were then kept overnight in same conditions as flasks to allow cells to adhere to coverslips. They were then transferred to a 30°C/5% CO2 incubator to inhibit cell proliferation until ready to be used for electrophysiology experiments. At this stage, channel expression was induced with tetracycline (2 μg/mL, Sigma-Aldrich) 8–24 h prior to recording cells.
External recording solutions contained (in mM): 114 CsCl, 5 BaCl2, 1 MgCl2, 10 HEPES, 10 glucose, adjusted to pH 7.4 with CsOH. The internal patch pipette solution contained (in mM): 126.5 CsMeSO4, 2 MgCl2, 11 EGTA, 10 HEPES adjusted to pH 7.3 with CsOH. […] Liquid junction potentials for the above solutions were calculated before experiments using pClamp 10 software and corrected during experiments. […] Currents were elicited from a holding potential of −100 mV and were measured by conventional whole-cell patch clamp techniques using an Axopatch 200B amplifier in combination with Clampex 9.2 software (Molecular Devices, Sunnyvale, CA). […]
In general terms: The patch-clamp technique gives a direct electrical read-out from membranes.

In assay [3] the test system is 6 Hz-induced seizures in Swiss mice. Briefly: 6 Hz seizure model in mice. Format: in vivo, mouse. As to the method:
Swiss outbred mice used in 6 Hz seizure experiments were purchased from Australian Resources Centre (stock ARC(S); Canning Vale, Australia) and single housed for 1 week prior to experimentation to prevent fighting.
6 Hz seizures were induced in Swiss male mice (9–10 weeks old) using an Ugo Basile electroconvulsive therapy unit (Model 57,800; Gemonio, Italy). Mice were pre-treated with vehicle, SB2193 (10 mg/kg, 30 mg/kg, 100 mg/kg) or valproic acid (300 mg/kg) via i.p. injection 15 min before seizure induction based on the time-to-peak brain concentration determined in pharmacokinetic studies. […] A drop of 0.5% tetracaine was applied to both corneas immediately following the i.p. injection to provide local anaesthesia. Immediately prior to the electrical stimulation, saline was applied to each cornea to ensure electrical conductivity. Corneal electroshocks were administered at 44 mA, 6 Hz, 3 s shock duration, with a […] rectangular pulse width. Mice were shocked and scored by an observer blinded to treatment for the presence of twitching of the vibrissae, stun, myoclonus, rearing, forelimb clonus, and/or Straub tail. […] The ED50 for SB2193 was calculated using computer-assisted log-probit linear regression analysis ([Litchfield and Wilcoxon, 1949]). A χ^2 test was performed to assess statistical significance.

T1 sequence (Q9P0X4 whole entry): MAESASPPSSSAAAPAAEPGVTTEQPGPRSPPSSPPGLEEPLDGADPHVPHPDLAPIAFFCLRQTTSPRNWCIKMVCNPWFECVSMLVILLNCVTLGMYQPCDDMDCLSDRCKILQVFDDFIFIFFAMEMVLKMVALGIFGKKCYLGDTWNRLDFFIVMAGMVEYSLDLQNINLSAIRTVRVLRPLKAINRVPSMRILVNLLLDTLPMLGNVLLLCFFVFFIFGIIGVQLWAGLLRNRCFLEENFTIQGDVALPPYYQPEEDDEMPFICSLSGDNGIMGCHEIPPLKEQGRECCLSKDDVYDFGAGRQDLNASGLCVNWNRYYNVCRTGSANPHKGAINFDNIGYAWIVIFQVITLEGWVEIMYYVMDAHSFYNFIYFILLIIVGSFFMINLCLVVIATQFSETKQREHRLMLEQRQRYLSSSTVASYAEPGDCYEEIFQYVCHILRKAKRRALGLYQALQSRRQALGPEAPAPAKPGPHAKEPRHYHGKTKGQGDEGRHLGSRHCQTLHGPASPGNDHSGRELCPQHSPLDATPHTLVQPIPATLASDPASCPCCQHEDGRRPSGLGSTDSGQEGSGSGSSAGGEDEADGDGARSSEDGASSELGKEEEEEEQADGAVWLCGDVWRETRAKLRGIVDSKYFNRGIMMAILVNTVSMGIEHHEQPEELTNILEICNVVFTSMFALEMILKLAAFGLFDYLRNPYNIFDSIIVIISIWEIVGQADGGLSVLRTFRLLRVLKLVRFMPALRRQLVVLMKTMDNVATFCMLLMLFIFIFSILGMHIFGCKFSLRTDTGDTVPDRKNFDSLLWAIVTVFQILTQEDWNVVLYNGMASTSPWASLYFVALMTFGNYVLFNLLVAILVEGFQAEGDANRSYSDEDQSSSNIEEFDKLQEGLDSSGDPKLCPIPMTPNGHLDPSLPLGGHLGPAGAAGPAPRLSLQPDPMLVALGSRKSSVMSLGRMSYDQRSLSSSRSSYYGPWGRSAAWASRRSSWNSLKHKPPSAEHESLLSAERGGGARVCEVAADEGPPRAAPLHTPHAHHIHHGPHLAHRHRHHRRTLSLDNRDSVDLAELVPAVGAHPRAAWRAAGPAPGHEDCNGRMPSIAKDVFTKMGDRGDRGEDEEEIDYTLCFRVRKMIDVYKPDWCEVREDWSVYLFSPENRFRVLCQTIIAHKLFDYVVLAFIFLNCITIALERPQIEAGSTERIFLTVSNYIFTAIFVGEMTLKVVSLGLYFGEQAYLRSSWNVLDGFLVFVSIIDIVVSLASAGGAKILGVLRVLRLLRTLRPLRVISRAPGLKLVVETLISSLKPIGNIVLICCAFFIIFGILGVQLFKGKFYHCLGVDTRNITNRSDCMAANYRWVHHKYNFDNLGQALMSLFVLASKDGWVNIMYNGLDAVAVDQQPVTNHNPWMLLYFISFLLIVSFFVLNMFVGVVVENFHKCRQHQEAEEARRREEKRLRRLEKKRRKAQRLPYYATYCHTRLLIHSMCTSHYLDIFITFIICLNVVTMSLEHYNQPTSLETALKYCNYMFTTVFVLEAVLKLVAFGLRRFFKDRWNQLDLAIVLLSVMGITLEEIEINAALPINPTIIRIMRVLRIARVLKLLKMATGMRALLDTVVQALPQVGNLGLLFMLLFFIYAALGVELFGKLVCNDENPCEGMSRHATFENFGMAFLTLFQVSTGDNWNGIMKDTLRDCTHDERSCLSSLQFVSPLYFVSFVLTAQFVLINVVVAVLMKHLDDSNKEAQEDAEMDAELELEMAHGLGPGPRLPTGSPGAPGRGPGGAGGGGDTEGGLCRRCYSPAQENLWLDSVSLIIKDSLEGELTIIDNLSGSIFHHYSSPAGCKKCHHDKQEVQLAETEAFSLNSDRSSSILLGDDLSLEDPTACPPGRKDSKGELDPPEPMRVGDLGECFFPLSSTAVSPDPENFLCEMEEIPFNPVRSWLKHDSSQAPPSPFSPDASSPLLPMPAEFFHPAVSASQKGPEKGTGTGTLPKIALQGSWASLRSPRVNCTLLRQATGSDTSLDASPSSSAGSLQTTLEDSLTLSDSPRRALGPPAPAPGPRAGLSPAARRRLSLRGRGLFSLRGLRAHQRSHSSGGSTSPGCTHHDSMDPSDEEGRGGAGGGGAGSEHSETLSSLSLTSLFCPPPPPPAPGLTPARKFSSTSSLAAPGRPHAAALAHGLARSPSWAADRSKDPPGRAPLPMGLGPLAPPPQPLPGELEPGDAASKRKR

As for `CCCCCn1cc(C(=O)N2CCN(C(=O)OC(C)(C)C)CC2)c2ccccc21` [SB2193], the IC50 in assay [1] was 5.4 µM; in assay [2] (whole-cell patch clamp, n = 7–8, read-out: Cav3.1 pIC50 (converted)), 3.55 µM. For the same compound, the “potency in patch clamp less than that determined by the FLIPR assay” value in assay [2] (Cav3.1, patch clamp vs FLIPR) is “approximately 4 fold”. Further, the “percentage of mice protected from seizures compared to vehicle” value in assay [3] (100 mg/kg i.p., 15 min before 6 Hz 44 mA stimulation, n = 10) was “significantly increased”. In addition, the ED50 in assay [3] (Mus musculus, ip, log-probit analysis, estimated) is about 120 mg/kg.

As usually defined, the ED50 is the dose at which the effect has come halfway, by size or by number of responders.
